Results published in DBAASP.
In brackets after ≈: the same amount, converted by molar mass. Blank lines part the entries; values can stand above or below the compound they belong to.

Experiments:
Assay in all cases: ≥ marks a high value that may be exact or a test limit, other limits are often not marked, values filed in µg/mL are converted to µM
[1] = test system: Bacillus anthracis Sterne 34F2
[2] = test system: Bacillus subtilis var. niger ATCC 9372
[3] = test system: Escherichia coli K91BK
[4] = test system: Pseudomonas aeruginosa ATCC 15692
[5] = test system: Staphylococcus aureus ATCC 25923
[6] = test system: Saccharomyces cerevisiae
[7] = test system: Micrococcus luteus
[8] = test system: Escherichia coli ATCC 25922
[9] = test system: Bacillus cereus
[10] = test system: Escherichia coli
[11] = test system: Staphylococcus aureus
[12] = test system: Klebsiella pneumoniae
[13] = test system: Escherichia coli DH5alpha
[14] = test system: Salmonella typhimurium
[15] = test system: Pseudomonas aeruginosa
[16] = test system: Staphylococcus epidermidis
[17] = test system: Acinetobacter baumannii
[18] = test system: Enterococcus faecalis
[19] = test system: Candida albicans F7-39/IDE99
[20] = test system: Bacillus subtilis 168
[21] = test system: Escherichia coli B
[22] = test system: Micrococcus luteus ATCC 9341

SMILES: CC[C@H](C)[C@H](NC(=O)[C@H](CCCN=C(N)N)NC(=O)[C@H](CCCN=C(N)N)NC(=O)[C@H](CC(C)C)NC(=O)[C@H](CC(N)=O)NC(=O)[C@H](CCCCN)NC(C)=O)C(=O)N[C@H](C(=O)N[C@@H](CCCN=C(N)N)C(=O)N[C@@H](CCCCN)C(=O)N[C@H](C(=O)N[C@H](C(=O)N[C@@H](Cc1cnc[nH]1)C(=O)N[C@H](C(=O)N[C@H](C(=O)N[C@@H](CCCCN)C(=O)N[C@@H](CCCCN)C(=O)N[C@@H](Cc1ccc(O)cc1)C(=O)NCC(N)=O)[C@@H](C)CC)[C@@H](C)CC)[C@@H](C)CC)[C@@H](C)CC)[C@@H](C)O [KNLRRITRKIIHIIKKYG]
- MIC [1]: 25 µM (≈ 57.3 µg/mL)
- MIC [2]: 1.56 µM (≈ 3.58 µg/mL)
- MIC [3]: ≥ 100 µM

SMILES: CC[C@H](C)[C@H](NC(=O)[C@H](Cc1ccccc1)NC(=O)CNC(=O)[C@H](CCCCN)NC(=O)[C@H](C)NC(=O)[C@H](Cc1ccccc1)NC(=O)[C@H](CCCCN)NC(=O)[C@H](CCCCN)NC(=O)[C@H](C)NC(=O)[C@H](CO)NC(=O)[C@H](Cc1cnc[nH]1)NC(=O)[C@H](C)NC(=O)[C@@H](NC(=O)[C@H](CCC(=O)O)NC(=O)[C@H](CCCCN)NC(=O)[C@H](CC(C)C)NC(=O)CN)C(C)C)C(=O)N[C@@H](CO)C(=O)NCC(=O)N[C@@H](CC(C)C)C(=O)N[C@H](C(=O)NCC(=O)N[C@@H](CO)C(=O)O)[C@@H](C)O [GLKEVAHSAKKFAKGFISGLTGS]
- MIC [4]: ≥ 256 µM
- MIC [5]: > 256 µM
- MIC [6]: ≥ 128 µM
- MIC [7]: ≥ 32 µM
- MIC [8]: 64 µM (≈ 149 µg/mL)

SMILES: CC(C)C[C@H](NC(=O)[C@H](CCCCN)NC(=O)[C@H](Cc1ccccc1)NC(=O)[C@@H](NC(=O)[C@@H](NC(=O)CNC(=O)[C@H](CC(C)C)NC(=O)[C@@H](N)Cc1ccccc1)C(C)C)C(C)C)C(=O)N[C@@H](C)C(=O)N[C@@H](CO)C(=O)N[C@@H](CCCCN)C(=O)N[C@H](C(=O)N[C@@H](Cc1ccccc1)C(=O)N1CCC[C@H]1C(=O)N[C@@H](C)C(=O)N[C@H](C(=O)N[C@H](C(=O)NCC(=O)N[C@@H](CCCCN)C(=O)N[C@H](C(=O)O)C(C)C)C(C)C)C(C)C)C(C)C [FLGVVFKLASKVFPAVVGKV]
- MIC [9]: 30.4 µM (≈ 64 µg/mL)
- MIC [10]: 122 µM (≈ 256 µg/mL)
- MIC [11]: 15.2 µM (≈ 32 µg/mL)

SMILES: CC[C@H](C)[C@H](NC(=O)[C@H](C)NC(=O)[C@H](CCCCN)NC(=O)[C@H](C)NC(=O)[C@H](C)NC(=O)[C@H](CCCCN)NC(=O)CNC(=O)[C@H](Cc1ccccc1)NC(=O)[C@H](C)NC(=O)[C@@H](NC(=O)CNC(=O)[C@H](C)NC(=O)[C@H](CCCCN)NC(=O)[C@@H](NC(=O)[C@H](C)NC(=O)[C@H](CCSC)NC(=O)CN)[C@@H](C)O)[C@@H](C)O)C(=O)N[C@H](C(=O)NCC(=O)N[C@@H](C)C(=O)N[C@@H](C)C(=O)N[C@@H](CC(C)C)C(=O)O)[C@@H](C)CC [GMATKAGTAFGKAAKAIIGAAL]
- MIC [4]: ≥ 128 µM
- MIC [5]: > 256 µM
- MIC [6]: ≥ 64 µM
- MIC [7]: 2 µM (≈ 4.04 µg/mL)
- MIC [8]: 16 µM (≈ 32.3 µg/mL)

SMILES: CC[C@H](C)[C@H](NC(=O)[C@H](CCCCN)NC(=O)[C@H](CO)NC(=O)[C@H](Cc1ccccc1)NC(=O)[C@H](CC(C)C)NC(=O)[C@H](CCCCN)NC(=O)[C@H](CCC(=O)O)NC(=O)[C@H](CC(C)C)NC(=O)[C@H](CCCN=C(N)N)NC(=O)[C@H](CCCCN)NC(=O)[C@H](Cc1ccccc1)NC(C)=O)C(=O)N[C@@H](Cc1c[nH]c2ccccc12)C(=O)N[C@@H](CC(N)=O)C(=O)N[C@@H](Cc1c[nH]c2ccccc12)C(=O)N[C@@H](CCCCN)C(N)=O [FKRLEKLFSKIWNWK]
- MIC [1]: 14.9 µM (≈ 30.8 µg/mL)
- MIC [2]: 6.25 µM (≈ 12.9 µg/mL)
- MIC [3]: ≥ 100 µM

SMILES: CC[C@H](C)[C@H](NC(=O)[C@@H](NC(=O)[C@H](CS)NC(=O)[C@H](Cc1ccc(O)cc1)NC(=O)[C@@H](NC(=O)[C@H](CO)NC(=O)[C@@H]1CCCN1C(=O)[C@@H](NC(=O)[C@@H](NC(=O)[C@H](CCCCN)NC(=O)[C@H](CO)NC(=O)[C@H](C)NC(=O)[C@H](CC(C)C)NC(=O)[C@H](CCCCN)NC(=O)[C@H](Cc1ccccc1)NC(=O)[C@@H](NC(=O)[C@@H](N)C(C)C)C(C)C)C(C)C)C(C)C)C(C)C)[C@@H](C)O)C(=O)N[C@H](C(=O)N[C@@H](CCCCN)C(=O)N[C@@H](CCCCN)C(=O)O)[C@@H](C)O [VVFKLASKVVPSVYCTITKK]
- MIC [9]: ≥ 116 µM
- MIC [10]: 116 µM (≈ 256 µg/mL)

SMILES: CC[C@H](C)[C@H](N)C(=O)N[C@@H](CC(C)C)C(=O)N1CCC[C@H]1C(=O)N[C@@H](C)C(=O)N[C@@H](CCCCN)C(=O)N[C@@H](Cc1c[nH]c2ccccc12)C(=O)N1CCC[C@H]1C(=O)N[C@@H](Cc1c[nH]c2ccccc12)C(=O)N[C@@H](Cc1c[nH]c2ccccc12)C(=O)N1CCC[C@H]1C(=O)N[C@@H](Cc1c[nH]c2ccccc12)C(=O)N[C@@H](CCCN=C(N)N)C(=O)N[C@@H](CCCN=C(N)N)C(N)=O [ILPAKWPWWPWRR]
- MIC [22]: 0.4 µM (≈ 0.716 µg/mL)

SMILES: CC(=O)N[C@@H](CCCCN)C(=O)N[C@@H](CC(C)C)C(=O)N[C@@H](Cc1c[nH]c2ccccc12)C(=O)N[C@@H](CCCCN)C(=O)N[C@@H](CCCCN)C(=O)N[C@@H](Cc1c[nH]c2ccccc12)C(=O)N[C@@H](CCCCN)C(=O)N[C@@H](CCCCN)C(=O)N[C@@H](Cc1c[nH]c2ccccc12)C(=O)N[C@@H](CC(C)C)C(=O)N[C@@H](CCCCN)C(N)=O [KLWKKWKKWLK]
- MIC [1]: ≥ 100 µM
- MIC [2]: 6.25 µM (≈ 10.1 µg/mL)
- MIC [3]: ≥ 100 µM

Further lines, results first:

- MIC [12]: 25 µM (≈ 46.4 µg/mL)
- MIC [13]: 15 µM (≈ 27.8 µg/mL)
- MIC [14]: 25 µM (≈ 46.4 µg/mL)
- MIC [15]: 100 µM (≈ 185 µg/mL)
SMILES: CC[C@H](C)[C@H](N)C(=O)N[C@@H](CC(C)C)C(=O)N1CCC[C@H]1C(=O)N[C@@H](Cc1c[nH]c2ccccc12)C(=O)N[C@@H](CCCCN)C(=O)N[C@@H](Cc1c[nH]c2ccccc12)C(=O)N[C@@H](C)C(=O)N[C@@H](Cc1c[nH]c2ccccc12)C(=O)N[C@@H](Cc1c[nH]c2ccccc12)C(=O)N[C@@H](C)C(=O)N[C@@H](Cc1c[nH]c2ccccc12)C(=O)N[C@@H](CCCN=C(N)N)C(=O)N[C@@H](CCCN=C(N)N)C(N)=O [ILPWKWAWWAWRR]

- MIC [12]: 21 µM (≈ 51.7 µg/mL)
- MIC [10]: 5.2 µM (≈ 12.8 µg/mL)
- MIC [11]: 20.6 µM (≈ 50.8 µg/mL)
- MIC [16]: 10.3 µM (≈ 25.4 µg/mL)
- MIC [17]: 5.2 µM (≈ 12.8 µg/mL)
- MIC [15]: 10.3 µM (≈ 25.4 µg/mL)
- MIC [18]: 10.3 µM (≈ 25.4 µg/mL)
SMILES: CC[C@H](C)[C@H](NC(=O)CNC(=O)[C@H](CCCN=C(N)N)NC(=O)[C@H](Cc1ccc(O)cc1)NC(=O)[C@H](CC(C)C)NC(=O)[C@H](Cc1cnc[nH]1)NC(=O)CNC(=O)[C@H](Cc1ccccc1)NC(=O)[C@@H](N)Cc1c[nH]c2ccccc12)C(=O)N[C@H](C(=O)N[C@@H](CO)C(=O)N[C@H](C(=O)N[C@H](C(=O)N[C@@H](CCCCN)C(=O)N[C@@H](Cc1cnc[nH]1)C(=O)N[C@H](C(=O)N[C@@H](Cc1cnc[nH]1)C(=O)NCC(=O)N[C@@H](CC(C)C)C(=O)N[C@@H](CC(C)C)C(=O)N[C@@H](CO)C(=O)NCC(=O)O)C(C)C)C(C)C)C(C)C)[C@@H](C)O [WFGHLYRGITSVVKHVHGLLSG]

- MIC [11]: 7.7 µM (≈ 10.9 µg/mL)
- MIC [15]: 20.2 µM (≈ 28.5 µg/mL)
- MIC [19]: 5 µM (≈ 7.05 µg/mL)
- MIC [20]: 1.3 µM (≈ 1.83 µg/mL)
- MIC [21]: 3 µM (≈ 4.23 µg/mL)
SMILES: CSCC[C@H](NC(=O)CN)C(=O)N[C@@H](Cc1c[nH]c2ccccc12)C(=O)N[C@@H](CO)C(=O)N[C@@H](CCCCN)C(=O)N[C@@H](CC(C)C)C(=O)N[C@@H](CC(C)C)C(=O)NCC(=O)N[C@@H](Cc1cnc[nH]1)C(=O)N[C@@H](CC(C)C)C(=O)N[C@@H](CC(C)C)C(=O)N[C@@H](CCCN=C(N)N)C(N)=O [GMWSKLLGHLLR]

- MIC [11]: 7.7 µM (≈ 10.9 µg/mL)
- MIC [15]: 45 µM (≈ 63.4 µg/mL)
- MIC [19]: 6.2 µM (≈ 8.74 µg/mL)
- MIC [20]: 0.8 µM (≈ 1.13 µg/mL)
- MIC [21]: 3.8 µM (≈ 5.36 µg/mL)
SMILES: CC[C@H](C)[C@H](NC(=O)[C@H](CC(C)C)NC(=O)[C@H](Cc1cnc[nH]1)NC(=O)CNC(=O)[C@H](CC(C)C)NC(=O)[C@@H](NC(=O)[C@H](CCCCN)NC(=O)[C@H](CO)NC(=O)[C@H](Cc1c[nH]c2ccccc12)NC(=O)[C@H](CCSC)NC(=O)CN)[C@@H](C)CC)C(=O)N[C@@H](CCCN=C(N)N)C(N)=O [GMWSKILGHLIR]
